Laboratory results reported in patent US11419843B2, “Small molecule BCL-2 functional converters as cancer therapeutics” (Oregon State University, priority 2016, dated 2022).
Where two headings read alike, the source gives them in different places.

How the values were obtained:
[1] = tested on: H460 parental and resistant cells; assay: Colony formation (2D clonogenic, 3D soft agar) of H460 parental and resistant cells; type: cell-based, human; details: treated continuously for 14 days
Excerpt: Colony forming ability (%) relative to vehicle treatment. Representative of three independent conducted assays in triplicate.

[2] = tested on: MDA-MB-468 parental and derived paclitaxel or doxorubicin resistant cells; assay: Viability of MDA-MB-468 parental and derived resistant cells; type: cell-based, human
Protocol: Percentage viability relative to vehicle treatment. Representative of three independent assays in triplicate.
Percentage viability relative to vehicle treatment.
Percentage viability relative to vehicle treatment. Representative of three independent assays conducted in triplicate.
Cells of interest were plated at 2000 cells per well in 96-well black tissue culture plate and allowed to adhere to the plate overnight. Viability assays were performed using 10% serum medium unless otherwise stated. Drugs were diluted in supplemented tissue culture medium and added at increasing concentrations, with DMSO as a vehicle control. Cells were then incubated for either 48 hour or 72 hours in presence of the compound, Promega Titer Glo was added to the wells at the assay end point according to manufacturer's protocol. Luminescence was measured using Tropix TR717 Microplate luminometer. Percentage of viable cells is relative to vehicle (100%). As a complementary viability assay, eBioscience Fixable Viability Dye eFluor 660(65-0864) was used to stain dead cells and analyzed using flow cytometry.

[3] = tested on: MEF Bcl-2−/− and WT MEF cells; assay: Colony forming ability of MEFs; type: cell-based, mouse; details: 10 μM, 10% FBS, 48 h
[4] = tested on: H460 parental and resistant cells; assay: Annexin-V apoptosis assay in H460 parental and resistant cells; type: cell-based, human; details: BFC1108 20 μM, 48 hours
Protocol: FIG. 25E is the results of Annexin-V apoptosis assay in H460 cells treated for 48 hours with vehicle or paclitaxel 10 nM, quantification right panel.
Cells were seeded into 6 well tissue culture plates to give approximately 50% confluence and allowed to attach overnight. The cells were then treated for a period of time indicated in figure legend with the appropriate compound at various concentrations (see figure legends). An Annexin V-conjugate PerCP-eFluor 710 apoptosis detection kit was used as described by the manufacturer's protocol (eBioscience 88-8008). Harvesting of cells included collection of floating and attached cells following trypsinization. Data were acquired using an CytoFLEX S flow cytometer (Beckman Coulter, Brea, Calif.) and 10,000 events on the PC5.5 channel were analyzed using CytExpert software (Beckman Coulter). For Nur77 GFP tagged annexin V analysis, GFP positive population were selected and then Annexin V+population was determined. For each sample, 10,000 GFP+ events were collected. Annexin V positive cell population was considered to be the apoptotic population, and the percent of annexin V positive cell population was used to determine the extent of apoptosis.

[5] = tested on: MDA-MB-468 parental and paclitaxel resistant cells; assay: Clonogenic survival of MDA-MB-468 parental and resistant cells; type: cell-based, human; details: treated continuously for 14 days
Excerpt: FIG. 29B is the results of clonogenic survival assays in MDA-MB-468 parental and resistant cells treated continuously for 14 days with vehicle, or indicated concentration of paclitaxel. Colony forming ability (%) relative to vehicle treatment. Representative of three independent assays conducted in triplicate.

[6] = low dose; cited from earlier work
[7] = target: Bcl-2 loop domain (Homo sapiens, UniProt P10415); assay: NMR titration of 15N-13C labeled Bcl-2 loop domain (HSQC chemical shift perturbation); details: for Kd: 0.2 mM Bcl-2 loop titrated with 0.2-5.4 mM MTX
Sequence of Bcl-2 loop domain (P10415 29-90 limits assumed): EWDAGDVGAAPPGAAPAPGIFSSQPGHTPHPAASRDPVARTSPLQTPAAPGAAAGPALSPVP

[8] = tested on: WT and Bcl-2−/− MEFs; assay: Viability of WT and Bcl-2-/- MEFs; type: cell-based, mouse; details: indicated concentrations, 10% FBS
Protocol: FIG. 9E depicts effect of methotrexate in certain cancer cell types. Left Panel: Bcl-2 levels in WT and Bcl-2−/− MEFs. Right panel: MEF cells were exposed to indicated concentrations of Methotrexate in medium containing 10% FBS and viability was determined by cell titer glo assay.
Cell viability was determined using CellTiter Glo Luminescent Cell Viability Assay (Promega, Madison, Wis.) as per manufacturer instructions. DAPI stain was used to assess apoptosis. Colony forming assays were performed as described previously.

[9] = tested on: MDA-MB-231 cells with or without Bcl-2 expression vector; assay: Transwell matrigel invasion assay; type: cell-based, human; details: 10 μM, 16 h
Protocol: FIG. 10F is MDA-MB231 cells with or without Bcl-2 expression vector were treated with 10 μM MTX or vehicle in a matrigel invasion chamber for 16 h and the membrane was then fixed, stained and number of cells invaded counted.
Invasion assay was performed using BD transwell invasion assay kit. MDA-MB-231 cells were treated for 16 h at 10 μM concentration and membrane was stained with prolong anti-fade DAPI stain and number of cells invaded were counted under a fluorescent microscope.

[10] = target: T1, Nur77 interaction with Bcl-2 (Homo sapiens, UniProt P10415); assay: Co-immunoprecipitation, competition with Nur77 for Bcl-2; type: binding; details: 10 μM MTX, 16 h, HEK293T cells
T1 construct: expressed in transfected cells; host or cells: HEK293T
T1 sequence (P10415 whole entry): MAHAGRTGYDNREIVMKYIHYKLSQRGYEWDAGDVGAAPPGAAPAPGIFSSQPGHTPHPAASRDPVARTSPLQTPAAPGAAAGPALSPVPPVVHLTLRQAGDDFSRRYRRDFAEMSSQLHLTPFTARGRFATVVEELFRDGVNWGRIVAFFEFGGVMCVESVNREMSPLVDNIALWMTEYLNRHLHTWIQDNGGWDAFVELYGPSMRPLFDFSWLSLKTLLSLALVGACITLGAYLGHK
Protocol: Methotrexate reduced the interaction of Nur-77 with BCl-2 domain upon co-incubation indicating methotrexate interacts with the same region of loop domain as does Nur-77.
For CoIP experiments, HEK293T cells were plated in a 6 well plate and transfected with indicated expression plasmids by lipofectamine. The total amount of DNA was maintained at 2.5 μg. After 12 h of transfection, cells were treated with DMSO or 10 μM MTX for 16 h. The cells were then lysed on ice using RIPA buffer with freshly added protease inhibitor cocktail (Complete, mini, EDTA-free protease inhibitor cocktail, Roche, Inc.). The lysis buffer contained either DMSO or 10 μM MTX. Cell lysates were incubated on ice for 30 min and then spun at 14,000 rpm for 30 min at 4° C. Cleared lysates were incubated with Bcl-2 antibody (sc-509, Santacruz) and incubated at 4° C. for 2-4 h end-over-end mixing. After incubation a volume of sepharose beads (sc-2003, Santacruz) were added to each sample and left end-over-end mixing overnight at 4° C. The beads were then washed four times with RIPA buffer containing either DMSO or 10 μM and then solubilized in laemmli buffer. Proteins were analyzed on 10-12% SDS-PAGE and immunoblotted with mouse polyclonal anti-Bcl-2 (sc-509, Santacruz), mouse polyclonal anti-GFP (33-2600, Thermofisher).

[11] = humans; cited from earlier work
[12] = mice; cited from earlier work

Row | Structure (SMILES) | Colony formation ability of H460 resistant vs parental line [1] | Viability of MDA-MB-468 doxorubicin resistant cells ([2]; 72 hour treatment) | Viability of MDA-MB-468 paclitaxel resistant vs parental cells ([2]; 72 hours) | Colony forming ability of MEF Bcl-2−/− cells [3] | Colony forming ability of WT MEFs [3] | Induction of apoptosis (Annexin V), H460 resistant vs parental [4] | Colony forming ability of MDA-MB-468 paclitaxel resistant cells [5] | bioavailability [6] | Chemical shift perturbations of Bcl-2 loop domain upon titration ([7]; 15N-1H HSQC) | Hill coefficient, His55 ([7]; Hill model fit) | Hill coefficient, His58 ([7]; Hill model fit) | Kd ([7]; Kd from chemical shift perturbation of His55, Hill model fit) | Kd ([7]; Kd from chemical shift perturbation of His58, Hill model fit) | Bcl-2 dependent induction of apoptosis in MEFs with or without Bcl-2 [8] | Invasive potential of Bcl-2 over-expressing cells vs vector controls [9] | Competition with Nur77 for interaction with Bcl-2 [10] | half-life [11] | half-life [12]
1 | CCOc1ccccc1NC(=O)c1cc(Cl)ccc1NC(=O)c1ccc(OC)cc1 [BFC1108, 5-chloro-N-(2-ethoxyphenyl)-2-[(4-methoxybenzoyl)amino]-benzamide] | reduced colony formation ability of resistant line preferentially | reduced viability of doxorubicin resistant cells | preferentially killed by BFC1108 in a dose dependent manner | absent | fewer colonies | induced apoptosis in the resistant line preferentially | reduced colony forming ability of the paclitaxel resistant cells |  |  |  |  |  |  |  |  |  |  | 
2 | CN(Cc1cnc2nc(N)nc(N)c2n1)c1ccc(C(=O)N[C@@H](CCC(=O)O)C(=O)O)cc1 [MTX, (2S)-2-[[4-[(2,4 diaminopteridin-6-yl)methylmethylamino]benzoyl]amino] pentanedioc acid] |  |  |  |  |  |  |  | ≤ 70% | residues 55-60 | 1.2 | 1.0 | 5.1 mM | 11.4 mM | Bcl-2 dependent induction of apoptosis by MTX was also seen in mouse embryonic fibroblast cells with or without Bcl-2 | inhibited the invasive potential of Bcl-2 over-expressing cells | competition between MTX and Nur77 in interacting with the Bcl-2 protein could be seen | 7 to 10 h | 0.5 h
